Test results as given in patent publication US20260262643A1, “HERBICIDAL BENZOXAZINES” (FMC CORPORATION, priority 2022, published 2026).

What was measured:
[1] = tested on: kochia; assay: Test C preemergence; type: in vivo, Bassia scoparia
Procedure, shortened: (§1)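 Soil-applied (pre) and foliar (post, 1–2 leaf, 2–10 cm) sprays; surfactant-containing non-phytotoxic solvent vehicle; loam/sand substrate. Readout: visual % control at 10 d, greenhouse, versus untreated.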

[2] = tested on: oat, wild; assay: Test C preemergence; type: in vivo, Avena fatua
Procedure, shortened: as §1

[3] = tested on: barnyardgrass; assay: Test C preemergence; type: in vivo, Echinochloa crusgalli
Procedure, shortened: as §1

[4] = tested on: barnyardgrass; assay: Test C postemergence; type: in vivo, Echinochloa crusgalli; settings: 10 days, 0 to 100 scale (0 no effect, 100 complete control)
Procedure, shortened: as §1

[5] = tested on: wheat; assay: Test C postemergence; type: in vivo, Triticum aestivum; settings: 10 days, 0 to 100 scale (0 no effect, 100 complete control)
Procedure, shortened: as §1

[6] = tested on: foxtail, giant; assay: Test C preemergence; type: in vivo, Setaria faberi
From the text: (§2) Seeds of plant species selected from barnyardgrass (Echinochloa crusgalli), blackgrass (Alopecurus myosuroides), corn (Zea mays), foxtail, giant (giant foxtail, Setaria faberi), green foxtail (Setaria viridis), goosegrass (Eleusine indica), kochia (Bassia scoparia), oat, wild (wild oat, Avena fatua), pigweed, palmer (palmer amaranth, palmer pigweed, Amaranthus palmeri), Pigweed, Redroot (redroot pigweed, Amaranthus retroflexus), ragweed (common ragweed, Ambrosia artemisiifolia), ryegrass, Italian ([…] ryegrass, Lolium multiflorum), soybean (Glycine max), and wheat (Triticum aestivum) were planted into a blend of loam soil and sand and treated preemergence with a directed soil spray using test chemicals formulated in a non-phytotoxic solvent mixture which included a surfactant. At the same time, plants selected from these crops and weed species and also galium (catchweed bedstraw, Galium aparine) and horseweed (Erigeron canadensis) were planted in pots containing the same blend of loam soil and sand and treated with postemergence applications of test chemicals formulated in the same manner. Plants ranged in height from 2 to 10 cm and were in the one- to two-leaf stage for the postemergence treatment. Treated plants and untreated controls were maintained in a greenhouse for 10 days, after which time all treated plants were compared to untreated controls and visually evaluated for injury. Plant response ratings, summarized in Table C, are based on a 0 to 100 scale where 0 is no effect and 100 is complete control. A dash (-) response means no test result.

[7] = tested on: kochia; assay: Test C postemergence; type: in vivo, Bassia scoparia; settings: 10 days, 0 to 100 scale (0 no effect, 100 complete control)
Procedure, shortened: as §1

[8] = tested on: galium; assay: Test C postemergence; type: in vivo, Galium aparine; settings: 10 days, 0 to 100 scale (0 no effect, 100 complete control)
Procedure, shortened: as §1

[9] = tested on: corn; assay: Test C postemergence; type: in vivo, Zea mays; settings: 10 days, 0 to 100 scale (0 no effect, 100 complete control)
Procedure, shortened: as §1

[10] = tested on: pigweed, palmer; assay: Test C preemergence; type: in vivo, Amaranthus palmeri
Procedure, shortened: as §1

[11] = tested on: foxtail, giant; assay: Test C postemergence; type: in vivo, Setaria faberi; settings: 10 days, 0 to 100 scale (0 no effect, 100 complete control)
From the text: as §2

[12] = tested on: ryegrass, Italian; assay: Test C postemergence; type: in vivo, Lolium multiflorum; settings: 10 days, 0 to 100 scale (0 no effect, 100 complete control)
Procedure, shortened: as §1

[13] = tested on: ryegrass, Italian; assay: Test C preemergence; type: in vivo, Lolium multiflorum
Procedure, shortened: as §1

[14] = tested on: ragweed; assay: Test C preemergence; type: in vivo, Ambrosia artemisiifolia
Procedure, shortened: as §1

[15] = tested on: corn; assay: Test C preemergence; type: in vivo, Zea mays
Procedure, shortened: as §1

[16] = tested on: blackgrass; assay: Test C postemergence; type: in vivo, Alopecurus myosuroides; settings: 10 days, 0 to 100 scale (0 no effect, 100 complete control)
Procedure, shortened: as §1

[17] = tested on: sedge, umbrella; assay: Test D flooded paddy test; type: in vivo, Cyperus difformis; settings: 250 g ai/ha, applied to paddy water, visual rating after 13 to 14 days, scale 0 to 100 (0 no effect, 100 complete control)
Procedure, shortened: (§3)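 Compounds go straight into paddy water over 2-leaf plants in pots flooded to 3 cm. Greenhouse holding lasts 13 to 14 days. Injury is scored by eye against controls from 0 (none) to 100 (complete control).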

[18] = tested on: rice; assay: Test D flooded paddy test; type: in vivo, Oryza sativa; settings: 250 g ai/ha, applied to paddy water, visual rating after 13 to 14 days, scale 0 to 100 (0 no effect, 100 complete control)
Procedure, shortened: as §3

[19] = tested on: blackgrass; assay: Test C preemergence; type: in vivo, Alopecurus myosuroides
Procedure, shortened: as §1

[20] = tested on: ragweed; assay: Test C postemergence; type: in vivo, Ambrosia artemisiifolia; settings: 10 days, 0 to 100 scale (0 no effect, 100 complete control)
Procedure, shortened: as §1

[21] = tested on: ducksalad; assay: Test D flooded paddy test; type: in vivo, Heteranthera limosa; settings: 250 g ai/ha, applied to paddy water, visual rating after 13 to 14 days, scale 0 to 100 (0 no effect, 100 complete control)
Procedure, shortened: as §3

[22] = tested on: pigweed, palmer; assay: Test C postemergence; type: in vivo, Amaranthus palmeri; settings: 10 days, 0 to 100 scale (0 no effect, 100 complete control)
Procedure, shortened: as §1

[23] = tested on: soybean; assay: Test C postemergence; type: in vivo, Glycine max; settings: 10 days, 0 to 100 scale (0 no effect, 100 complete control)
Procedure, shortened: as §1

[24] = tested on: horseweed; assay: Test C postemergence; type: in vivo, Erigeron canadensis; settings: 10 days, 0 to 100 scale (0 no effect, 100 complete control)
Procedure, shortened: as §1

[25] = tested on: oat, wild; assay: Test C postemergence; type: in vivo, Avena fatua; settings: 10 days, 0 to 100 scale (0 no effect, 100 complete control)
Procedure, shortened: as §1

[26] = tested on: wheat; assay: Test C preemergence; type: in vivo, Triticum aestivum
Procedure, shortened: as §1

[27] = tested on: soybean; assay: Test C preemergence; type: in vivo, Glycine max
Procedure, shortened: as §1

[28] = tested on: barnyardgrass; assay: Test D flooded paddy test; type: in vivo, Echinochloa crus-galli; settings: 250 g ai/ha, applied to paddy water, visual rating after 13 to 14 days, scale 0 to 100 (0 no effect, 100 complete control)
Procedure, shortened: as §3

[29] = 500 g ai/ha, preemergence, 0 to 100 scale (0 no effect, 100 complete control)
[30] = Preemergence, 125 g ai/ha, 0 to 100 scale, 0 no effect, 100 complete control

Structure (SMILES): Cc1cccc2c1OC(C(F)(F)F)CN2C(=O)c1ccnc(-n2cnc(C(C)(C)C)n2)c1 (stereo not shown) [Compound 319]
- Kochia plant response rating [1, 29]: 0
- Plant response rating, Kochia [1, 30]: 0
- Oat, Wild plant response rating [2, 29]: 40
- Plant response rating, Oat, Wild [2, 30]: 20
- Barnyardgrass plant response rating [3, 29]: 90
- Plant response rating, Barnyardgrass [3, 30]: 40
- Plant response rating, Barnyardgrass ([4]; 500 g ai/ha, postemergence): 60
- Plant response rating, Barnyardgrass ([4]; Postemergence, 125 g ai/ha): 10
- Plant response rating, Wheat ([5]; 500 g ai/ha, postemergence): 10
- Plant response rating, Wheat ([5]; Postemergence, 125 g ai/ha): 10
- Foxtail, Giant plant response rating [6, 29]: 100
- Plant response rating, Foxtail, Giant [6, 30]: 100
- Plant response rating, Kochia ([7]; 500 g ai/ha, postemergence): 90
- Plant response rating, Kochia ([7]; Postemergence, 125 g ai/ha): 40
- Plant response rating, Galium ([8]; 500 g ai/ha, postemergence): 70
- Plant response rating, Galium ([8]; Postemergence, 125 g ai/ha): 60
- Plant response rating, Corn ([9]; 500 g ai/ha, postemergence): 50
- Plant response rating, Corn ([9]; Postemergence, 125 g ai/ha): 20
- Pigweed, Palmer plant response rating [10, 29]: 90
- Plant response rating, Pigweed, Palmer [10, 30]: 80
- Plant response rating, Foxtail, Giant ([11]; 500 g ai/ha, postemergence): 80
- Plant response rating, Foxtail, Giant ([11]; Postemergence, 125 g ai/ha): 30
- Plant response rating, Ryegrass, Italian ([12]; 500 g ai/ha, postemergence): 50
- Plant response rating, Ryegrass, Italian ([12]; Postemergence, 125 g ai/ha): 30
- Ryegrass, Italian plant response rating [13, 29]: 100
- Plant response rating, Ryegrass, Italian [13, 30]: 100
- Ragweed plant response rating [14, 29]: 0
- Plant response rating, Ragweed [14, 30]: 0
- Corn plant response rating [15, 29]: 20
- Plant response rating, Corn [15, 30]: 0
- Plant response rating, Blackgrass ([16]; 500 g ai/ha, postemergence): 80
- Plant response rating, Blackgrass ([16]; Postemergence, 125 g ai/ha): 10
- Plant response rating, Sedge, Umbrella (Flood) [17]: 0
- Plant response rating, Rice (Flood) [18]: 0
- Blackgrass plant response rating [19, 29]: 70
- Plant response rating, Blackgrass [19, 30]: 50
- Plant response rating, Ragweed ([20]; 500 g ai/ha, postemergence): 70
- Plant response rating, Ragweed ([20]; Postemergence, 125 g ai/ha): 0
- Plant response rating, Ducksalad (Flood) [21]: 0
- Plant response rating, Pigweed, Palmer ([22]; 500 g ai/ha, postemergence): 80
- Plant response rating, Pigweed, Palmer ([22]; Postemergence, 125 g ai/ha): 30
- Plant response rating, Soybean ([23]; 500 g ai/ha, postemergence): 100
- Plant response rating, Soybean ([23]; Postemergence, 125 g ai/ha): 100
- Plant response rating, Horseweed ([24]; 500 g ai/ha, postemergence): 30
- Plant response rating, Horseweed ([24]; Postemergence, 125 g ai/ha): 0
- Plant response rating, Oat, Wild ([25]; 500 g ai/ha, postemergence): 30
- Plant response rating, Oat, Wild ([25]; Postemergence, 125 g ai/ha): 0
- Wheat plant response rating [26, 29]: 30
- Plant response rating, Wheat [26, 30]: 0
- Soybean plant response rating [27, 29]: 100
- Plant response rating, Soybean [27, 30]: 20
- Plant response rating, Barnyardgrass (Flood) [28]: 0
